Source: paper PMC3274619 (Bioorganic & medicinal chemistry letters, 2012)

Assay: Solubility observed during synthesis and purification
Format: physicochemical
Conditions: cause of yield and purification difficulties

solubility: poor solubility
SMILES: Cc1nc(N)sc1-c1csc(Nc2cc(N(C)C)ccc2Cl)n1 [compound 15, N^2-(2-chloro-5-(dimethylamino)phenyl)-4′-methyl-[4,5′-bithiazole]-2,2′-diamine]
